26 molecules from PubChem BioAssay (NCI) can be followed below.

The structures appear in SMILES notation. Several values for one entry are separate records, joined by “and”; a condition that tells them apart may be missing. Identical values can stand only once.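 Interpolation was linear, between the two tested concentrations surrounding the appropriate level; five concentrations were tested over 48 hours in 96-well plates. At the GI50, growth is halved. TGI is the concentration that stops growth completely.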

Holding throughout (assay): DTP human tumour cell line panel, 48 h
Assay [1] has as its system A549 NSCLC.
For assay [2], the system named is ACHN renal.
Assay [3] concerns IGROV1 ovarian.
Assay [4] relates to M14 melanoma.
In assay [5] the test system is NCI-H226 lung.
The subject of assay [6] is SF-539 CNS.
In assay [7] the test system is SK-MEL-28 melanoma.
The test system of assay [8] is SK-OV-3 ovarian.
Assay [9] relates to UACC-257 melanoma.
Assay [10] has as its system HOP-92 NSCLC.

With `Clc1ccc(Cc2nc3ccccc3s2)c(Cl)c1`, the TGI in assay [1] stood at 42.1 µM; in assay [2], 34.9 µM; in [3], 30.6 µM; in [4] it was 31.3 µM; in [5], 39.1 µM; in [6] it was 12 µM. In addition, the total growth inhibition concentration (TGI) in assay [7] turned out to be 33.1 µM; in assay [8] it was 43.3 µM; in assay [9] it was 34.8 µM.
Consider `CC1CCP(=O)(c2ccccc2)c2ccccc21` (stereo not drawn), for which the TGI in assay [1], in assay [2], in assay [3], in [4], in assay [5] and in assay [6] was over 100 µM throughout. In addition, the TGI in [7], in [8] and in assay [9] was over 100 µM in each case.
Take `CCCCCCCCCCCCCCN`: the TGI in assay [2], in assay [10], in [3], in [7], in assay [8] and in assay [9] was over 100 µM in each case.
Turning to `O=C1c2ccc([N+](=O)[O-])cc2-c2c1c1ccccc1c(=O)n2CCCNCCCNCCCn1c2c(c3ccc([N+](=O)[O-])cc3c1=O)C(=O)c1ccccc1-2`, the GI50 in assay [1] was 2.69 µM; in [2] it was 4260 nM; in assay [3], 2.43 µM; in assay [4] it was 13600 nM; in assay [5] it was 1570 nM; in assay [6] it was 1960 nM. Moreover, the GI50 in [7] is 3.83 µM; in [8], 4.79 µM; in [9], 18000 nM. In addition, the TGI in assay [1] is over 40.8 µM; in assay [2], 15.9 µM; in [3], 15.8 µM; in assay [4], 33.9 µM; in [5] it was 8.53 µM; in [6], 7 µM. The figures for the TGI in assay [7], in assay [8] and in assay [9] were 15.9 µM, 19.2 µM and 59.6 µM, respectively.
On to `CCCn1c(SC)nc(COC(=O)NC)c1COC(=O)NC`, for which the total growth inhibition concentration (TGI) in [1], in [2], in assay [3], in [4], in [5] and in [6] was over 100 µM in each case. Moreover, the TGI in assay [7], in [8] and in [9] was over 100 µM in each case.
With `OC1c2ccccc2C2(O)C1C(c1ccccc1)C(c1ccccc1)C2(O)c1ccccc1` (stereo not drawn), the TGI in [1] worked out at 81.2 µM; in [2], 29.7 µM; in assay [10] it was 23.9 µM; in [3], 82.9 µM; in assay [4], 28.3 µM; in assay [6] it was 26 µM. Moreover, the TGI in assay [7] stood at 25.7 µM; in [8], 64 µM; in [9], 29.7 µM.
As for `O=C(/C(=C\C(=O)c1cccs1)c1ccsc1)c1ccc(Br)cc1`, the TGI in [1], in assay [2], in assay [3], in assay [4], in assay [5] and in assay [6] was over 100 µM throughout. Moreover, the TGI in assay [7], in [8] and in assay [9] was over 100 µM throughout.
For the molecule `CCOC(=O)C1=C(C(=O)c2ccc(C)cc2)C(c2cccc([N+](=O)[O-])c2)C(C(=O)c2ccc(C)cc2)=C(C(=O)OCC)N1`, the TGI came to 66.1 µM in [1]; 28.3 µM in [2]; 35.3 µM in assay [3]; 32.9 µM in assay [4]; 35.2 µM in [5]; 26.7 µM in assay [6]. For the same molecule, the figures for the TGI in [7], in assay [8] and in assay [9] were 34.2 µM, 27.9 µM and 41.4 µM, respectively.
For the molecule `COc1ccccc1N=C(N)N/N=C/c1c[nH]c2ccccc12`, the TGI in [1] turned out to be 26.6 µM; in [2] it was 22 µM; in [3] it was 28.9 µM; in [4], 10.5 µM; in assay [5] it was 28.5 µM; in assay [6], 26.4 µM. In addition, the TGI in assay [7] is 16.3 µM; in assay [8], 31.7 µM; in [9], 11.7 µM.
`CC12N=NN(c3ccc([N+](=O)[O-])cc3)C1(O)c1ccccc1C2=O` (stereo not drawn): the TGI in assay [1], in assay [2], in [3], in [4], in assay [5] and in assay [6] was over 100 µM each time. Also, the total growth inhibition concentration (TGI) in assay [8] and in assay [9] was over 100 µM throughout.
As for `O=C(O)COc1ccc(O)c2c1C(=O)CCCC2=O`, the TGI in [1], in assay [2], in assay [3], in assay [4], in assay [6] and in assay [7] was over 100 µM throughout. Further, the concentration for total growth inhibition (TGI) in [8] and in [9] was over 100 µM in each case.
On to `COc1cc(/C=C\c2ccc(C)cc2)cc(OC)c1OC`, for which the TGI in assay [1] was over 100 µM; in assay [2], over 100 µM; in assay [10], 4.13 µM; in [3], over 100 µM; in assay [5], 0.987 µM; in [6], 0.0218 µM. In [9], this molecule registered a TGI of over 76.6 µM. Also, the concentration for 50% growth inhibition (GI50) in assay [10] is 23.3 nM; in [5] it was under 13.4 nM; in assay [9], under 21 nM.
As to `O=C([CH-]C(=O)c1ccccc1)c1ccccc1.O=C([CH-]C(=O)c1ccccc1)c1ccccc1.O=C([CH-]C(=O)c1ccccc1)c1ccccc1.[Nd+3].[OH3+]`, the GI50 in assay [1] is 8.41 µM; in assay [2], 5930 nM; in [10] it was 8290 nM; in assay [3], 6.72 µM; in assay [4] it was 6890 nM; in assay [6], 13700 nM. Besides, the GI50 in assay [7] is 7.74 µM; in [8] it was 5.58 µM; in assay [9], 7840 nM. The TGI is 31.8 µM in [1]; 21.2 µM in [2]; 25.5 µM in assay [10]; 49.8 µM in assay [3]; 21.2 µM in assay [4]; 45.9 µM in assay [6]. In addition, the total growth inhibition concentration (TGI) turned out to be 30.4 µM in [7], 29.3 µM in assay [8] and 24.6 µM in [9].
For `O=C(c1ccc(Cl)cc1)c1ccc(OCCCCCCCCCCOc2ccc(C(=O)c3ccc(Cl)cc3)cc2)cc1`, the total growth inhibition concentration (TGI) in assay [1], in assay [2], in [10], in assay [3], in [5] and in assay [7] was over 100 µM each time. The TGI in assay [8] and in assay [9] was over 100 µM throughout.
Turning to `COC(=O)C(C(=O)C(=O)Nc1ccc(C(F)(F)F)cc1[N+](=O)[O-])c1csc(-n2nc(-c3ccccc3)cc2-c2ccccc2)n1` (stereo not drawn), the TGI in assay [1], in assay [3], in assay [4], in assay [5], in [6] and in assay [8] was over 100 µM in each case. In [9], this molecule returned a total growth inhibition concentration (TGI) of over 100 µM.
On to `COc1cc(CCN)c2c(c1OC)SSSSS2`, for which the GI50 in [1] was 1.38 µM; in assay [2], 450 nM; in assay [10], 1420 nM; in assay [3], 0.336 µM; in assay [4], 85 nM; in assay [6], 1250 nM. Moreover, the GI50 in assay [7] is 1.79 µM; in [9] it was 2580 nM. Further, the TGI in assay [1] was 2.71 µM; in [2], 1.61 µM; in assay [10] it was 2.96 µM; in assay [3], 1.55 µM; in assay [4], 0.676 µM; in [6], 2.62 µM. The results for the TGI in [7] and in assay [9] were 3.43 µM and 6.8 µM, respectively.
For `CCCCS(=O)CCC(N)C(=O)O` (stereo not drawn), the TGI in [1], in [2], in assay [3], in [4], in [5] and in [6] was over 100 µM each time. For the same molecule, the TGI in assay [7], in [8] and in [9] was over 100 µM each time.
Turning to `OCCCOC(c1ccccc1)(c1ccccc1)c1ccccc1`, the TGI in assay [1], in assay [2], in assay [10], in [3], in assay [4] and in [6] was over 100 µM in each case. In addition, the TGI in [7], in [8] and in [9] was over 100 µM each time.
`COC1=CC(=O)C2C(C1=O)[C@@H]1c3ccccc3C[C@H]21` (stereo partly drawn): the TGI in [1], in assay [2], in [10], in assay [3], in assay [4] and in assay [6] was over 100 µM throughout. The total growth inhibition concentration (TGI) in [7], in assay [8] and in assay [9] was over 100 µM throughout.
`O=C1C=CC=CC2CC=C[C@@H](O)C12` (stereo partly drawn): the TGI in assay [1] was 67.7 µM; in [2], 31.8 µM; in assay [3], over 100 µM; in [4] it was 50.7 µM; in assay [6], 63.9 µM; in [8] it was over 100 µM. Moreover, the TGI in [9] was found to be 29.7 µM.
Turning to `Nc1nc2c(c(=O)[nH]1)NC(CO)CN2` (stereo not drawn), the TGI in assay [1], in assay [2], in assay [3], in assay [4], in assay [5] and in [6] was over 100 µM in each case. Besides, the total growth inhibition concentration (TGI) in [7] was over 100 µM; in assay [8], over 100 µM; in assay [9] it was 64.3 µM.
As for `CCCCc1c2c(nc3c1CCc1cc4cc5c(nc4nc1-3)-c1nc3c(c(CCCC)c1CC5)CCCC3)CCCC2`, the TGI in assay [1] is over 100 µM; in assay [2], over 100 µM; in [3] it was over 100 µM; in [4] it was over 100 µM; in [5], 89.1 µM; in assay [6], over 100 µM. Also, the concentration for total growth inhibition (TGI) in [7], in assay [8] and in assay [9] was over 100 µM in each case.
Regarding `COc1cc(/C=C2\CCC/C(=C\c3cc(OC)c(O)c(OC)c3)C2=O)cc(OC)c1O`, the GI50 was 3.14 µM in [1]; 1850 nM in assay [2]; 2900 nM in [4]; 3910 nM in assay [5]; 3.12 µM in assay [7]; 2920 nM in assay [9]. Also, the TGI in [2] is 2.31 µM and 3.94 µM; in assay [3] it was 3.89 µM; in assay [4], 75 µM and 69.4 µM; in assay [5] it was 47.9 µM and > 100 µM; in [6], over 100 µM; in [7] it was 75 µM and 24.8 µM. The TGI in [8] is over 100 µM; in assay [9], 75 µM and > 100 µM.
For `O=[N+]([O-])c1ccc(S(=O)Cc2ccccc2)c([N+](=O)[O-])c1` (stereo not drawn), the GI50 in assay [1] was 16.3 µM; in assay [2], 1620 nM; in assay [3], 14.1 µM; in assay [4], 1810 nM; in assay [5] it was 2270 nM; in assay [6] it was 3640 nM. The GI50 in assay [7] was 1.89 µM; in [8] it was 16.4 µM; in assay [9] it was 1760 nM. The TGI in [1] was 36.3 µM; in assay [2] it was 3.07 µM; in assay [3], 33.9 µM; in [4], 4.84 µM; in assay [5] it was 5.3 µM; in assay [6], 13.8 µM. Further, the TGI in assay [7] was determined as 4.13 µM; in assay [8], 30 µM; in [9] it was 3.96 µM.
In the case of `O=C(c1ccccc1)C1CCCCN1C(=O)c1ccccc1` (stereo not drawn), the TGI in [1], in assay [2], in assay [3], in [4], in assay [5] and in [6] was over 100 µM in each case. Besides, the TGI in assay [7], in assay [8] and in [9] was over 100 µM in each case.
For the molecule `CC(=O)N[C@@H]1C(O)CN2C(=O)C(=O)O[C@H](C(O)CO)[C@@H]12` (stereo partly drawn), the TGI in assay [1], in assay [2], in assay [10], in assay [3], in [6] and in assay [7] was over 100 µM throughout. The TGI in assay [8] and in [9] was over 100 µM in each case.
